From patent US8530507B2, “Use of levo-ornidazole in the preparation of anti-anaerobic bacteria infection drugs” (priority 2005, dated 2013)

Key:
[1] = In vivo pharmacokinetics in Beagle dogs
Protocol: The clinical dose of ornidazole is 500 mg for human. By calculating, based on body surface area, the pharmacokinetic experimental dose in Beagle dogs was 13 mg/kg in vivo. Six adult beagle dogs (half males and half females, body weight of 9˜11.5 kg) were randomly divided into three groups. According to crossover design, intravenous injection of L-, D-, and racemic ornidazole were administered in turn to each dog every other week (with one week washout period in between). 2 ml of blood was collected from the vein located at the forelimb of the dogs before drug administration and 0.083, 0.5, 1.0, 2.0, 4.0, 6.0, 8.0, 12.0, 16.0, 24.0 hours after drug administration, which was then placed in the heparinized tube, followed by centrifugation to obtain the plasma. Plasma concentration of drug was determined by HPLC. Pharmacokinetics parameters were estimated using the non-compartmental models. The corresponding pharmacokinetics parameters were obtained by BAPP2.0 using the data of plasma concentration of blood with time obtained above.

mice [2] = experiment: Effect on the hypnotic effect induced by sodium thiopental in mice; conditions: 40 mg/kg sodium thiopental i.p. 30 minutes later
Protocol: The same volume of 0.9% sodium chloride injection containing propylene glycol was administered in the vehicle control group. 30 minute after drug administration, 40 mg/kg of sodium thiopental was administered to mice by intraperitoneal injection. The time for the loss of righting reflex and the time for the recovery were recorded. The injection volume was 0.2 ml/10 g, the administration rate was 0.2 ml/10 sec.

mice [3] = experiment: Hypnotic effect of intravenous injection in mice (righting reflex); format: in vivo; conditions: mice, within 30 minutes
Protocol: White mice, half males and half females, fasted for eight hours. The disappearance of righting reflex in mice was observed. The number of animals who lost their righting reflex was recorded in 30 minutes after drug administration.

mice [4] = experiment: Effect on the coordination of balancing in mice; format: in vivo; conditions: intravenous injection
Protocol: Experiments were conducted in 9 administration groups, L-, D- and racemic ornidazole were administered to them at doses of 40, 80 and 160 mg/kg. Positive control group received chlorpromazine at a dose of 3 mg/kg.

mice [5] = experiment: Effects on spontaneous activities in mice; format: in vivo; conditions: for spontaneous activity compared with the vehicle control group: recorded at 0.5, 1, 2, 3 and 4 hours
Protocol: Chlorpromazine was administered at dose of […] in the positive control group, and the same volume of propylene glycol containing 0.9% sodium chloride injection was administered in the vehicle control group. Spontaneous activity was recorded at 0.5, 1, 2, 3 and 4 hours after drug administration. The injection volume was 0.2 ml/10 g and the administration rate was 0.2 ml/10 sec.

Beagle dogs = conditions: dog, in vivo, iv, 200 mg/kg
Description: 2. Toxicity Test in Beagle Dogs (Non-Rodent) After Intravenous Administration of L-ornidazole for Two Weeks
Beagle dogs, 4 dogs in each group with half females and half males, were divided into L-, D-, and racemic ornidazole groups.

[6] = beagle dogs, individual intravenous dose 13 mg/kg, plasma

In the case of `Cc1ncc([N+](=O)[O-])n1C[C@@H](O)CCl` [D-ornidazole], the “AUC0-t (area under curve)” value [1, 6] is reported as 66570 ± 10510 ng·h/mL, the “Cl (clearance)” value [1, 6] is reported as 1.59 ± 0.28 L/h and the “MRT (mean retention time of drugs)” value [1, 6] is reported as 8.74 ± 3.30 h. For the same compound, the “Vβ (elimination volume of distribution)” value [1, 6] was 13.59 ± 4.99 L, the “in vivo transformation of enantiomers between L- and D-ornidazole” value ([1]; dog, in vivo, iv) was “not occurred” and the “t1/2 (half life)” value ([1]; dog, in vivo, iv, 13 mg/kg) was 6.06 ± 2.29 h. For the same compound, the “duration of sleeping induced by sodium thiopental, compared with the vehicle control group” value (mice [2]; 40 mg/kg intravenous) was “significantly extended”, the “sleep latency induced by sodium thiopental, compared with the vehicle control group” value (mice [2]; 40 mg/kg intravenous) was “significantly reduced” and the “duration of sleeping induced by sodium thiopental, compared with the vehicle control group” value (mice [2]; 80 mg/kg intravenous) was “significantly extended”. For the same compound, the “sleep latency induced by sodium thiopental, compared with the vehicle control group” value (mice [2]; 80 mg/kg intravenous) was “significantly reduced”, the “number of mice with loss in righting reflex” value (mice [3]; individual dose of 160 mg/kg intravenous) was 10 mice and the “loss in righting reflex” value (mice [3]; individual dose of 40 or 80 mg/kg intravenous) was “No loss in righting reflex”. The “effect on the coordination and balance (number of falling animals)” value (mice [4]; 160 mg/kg) was “significant effect”, the “effect on the coordination and balance, compared with the vehicle control group” value (mice [4]; doses of 40 and 80 mg/kg) was “no significant effect” and the “recovery of spontaneous activity” value (mice [5]; 40 mg/kg intravenous) was “gradually become normal after 3 hours”. The “spontaneous activity compared with the vehicle control group” value (mice [5]; 40 mg/kg intravenous) was “reduced significantly at 0.5, 1 and 2 hours”, the “recovery of spontaneous activity” value (mice [5]; 80 mg/kg intravenous) was “not recovered in 4 hours” and the “spontaneous activity compared with the vehicle control group” value (mice [5]; 80 mg/kg intravenous) was “reduced significantly at 0.5, 1, 2, 3 and 4 hours”. For the same compound, the “recovery of spontaneous activity” value (mice [5]; 160 mg/kg intravenous) was “not recovered in 4 hours”, the “spontaneous activity compared with the vehicle control group” value (mice [5]; 160 mg/kg intravenous) was “reduced significantly at 0.5, 1, 2, 3 and 4 hours” and the “food intake and body weight” value (Beagle dogs) was “significantly inhibited”. The “histological examination of organs” value (Beagle dogs) was “significant pathological changes were not observed”, the “manifestations (toxicity and side effects)” value (Beagle dogs) was “drooling, vomiting, myasthenia of limbs, astasia, hyperspasmia” and the “number of Purkinje cells in cerebellum (histological examination)” value (Beagle dogs) was “significantly reduced”.
